From patent US10590084B2, “Cyclic keto-amide compounds as calpain modulators and methods of production and use thereof” (Blade Therapeutics, Inc., priority 2016, dated 2020)

How the values were obtained:
Human Calpain 9/NS1 = target: T1, Human Calpain 9/NS1 (Homo sapiens, UniProt O14815); assay: Biochemical inhibition of Calpain 9, continuous fluorescence (FRET) assay; conditions: mean; class symbols; read-out: Human Calpain 9/NS1 IC50 (nM)_MEAN
T1 sequence (O14815 1-690): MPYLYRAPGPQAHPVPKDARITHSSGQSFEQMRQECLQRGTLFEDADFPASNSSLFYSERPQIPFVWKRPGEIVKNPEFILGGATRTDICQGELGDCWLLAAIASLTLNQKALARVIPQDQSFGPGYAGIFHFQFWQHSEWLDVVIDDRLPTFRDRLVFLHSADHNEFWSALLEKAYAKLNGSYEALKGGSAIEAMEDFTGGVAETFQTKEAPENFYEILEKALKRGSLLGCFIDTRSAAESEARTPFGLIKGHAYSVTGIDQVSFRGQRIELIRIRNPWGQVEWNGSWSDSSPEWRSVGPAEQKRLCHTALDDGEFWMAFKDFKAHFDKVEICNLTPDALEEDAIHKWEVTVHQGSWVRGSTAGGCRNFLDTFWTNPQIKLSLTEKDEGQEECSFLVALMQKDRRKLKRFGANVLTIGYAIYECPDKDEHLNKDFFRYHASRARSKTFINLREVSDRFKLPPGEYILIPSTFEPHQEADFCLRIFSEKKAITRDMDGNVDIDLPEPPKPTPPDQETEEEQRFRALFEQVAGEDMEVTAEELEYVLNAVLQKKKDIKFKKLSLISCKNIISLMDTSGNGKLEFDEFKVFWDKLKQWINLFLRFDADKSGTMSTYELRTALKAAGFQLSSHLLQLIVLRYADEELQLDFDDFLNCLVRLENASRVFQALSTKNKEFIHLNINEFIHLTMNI
T1 sequence (P04632 1-268 partner): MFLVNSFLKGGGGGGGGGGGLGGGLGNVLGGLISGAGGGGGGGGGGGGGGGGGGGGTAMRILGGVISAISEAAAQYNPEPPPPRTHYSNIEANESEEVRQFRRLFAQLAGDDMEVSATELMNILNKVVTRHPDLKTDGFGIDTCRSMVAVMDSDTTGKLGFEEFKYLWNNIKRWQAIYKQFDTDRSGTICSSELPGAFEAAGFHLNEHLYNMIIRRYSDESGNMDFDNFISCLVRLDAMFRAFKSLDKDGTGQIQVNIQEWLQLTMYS
Experimental: (§1) Biochemical inhibition of Calpains 1, 2, and 9.
(§2) Calpains 1, 2, and 9 activity and inhibition thereof are assessed by means of a continuous fluorescence assay. The SensoLyte 520 Calpain substrate (Anaspec Inc) is optimized for detecting calpain activity. This substrate contains a novel internally quenched 5-FAM/QXLTM 520 FRET pair. Calpains 1, 2 and 9 cleave the FRET substrate into two separate fragments resulting in an increase of 5-FAM fluorescence that is proportional to calpain activity.
(§3) Assays are typically setup in black 384-well plates using automated liquid handling as follows. Calpain assay base buffer typically contains 50 mM Tris, pH 7.5, 100 mM NaCl and 1 mM DTT. Inhibitors are serially diluted in DMSO and used to setup 2× mixtures with calpains in the aforementioned buffer. After incubation at ambient temperature (25 C), the reaction is initiated by adding a 2× mix of the fluorescent peptide substrate and CaCl2 (required for in-situ calpain activation) in the same buffer. Reaction progress curve data are typically collected for 10 min using excitation/emission wavelengths of 490 nm/520 nm on SpectraMax i3x or the FLIPR-Tetra plate readers (Molecular Devices Inc). Reaction rates were calculated from progress curve slopes typically over 1-5 min. Dose response curves (rate vs. log inhibitor concentration) were typically fit to a 4-parameter logistic function to extract IC50 values.
Column C: Human Calpain 9/NS1 IC50 (nM)_MEAN • A: <3 uM; • B: 3-10 uM; • C: >10 uM;

Human Calpain 1/NS1 = target: T2, Human Calpain 1/NS1 (Homo sapiens, UniProt P07384); assay: Biochemical inhibition of Calpain 1, continuous fluorescence (FRET) assay; conditions: mean; class symbols; read-out: Human Calpain 1/NS1 IC50 (nM)_MEAN
T2 sequence (P07384 1-714): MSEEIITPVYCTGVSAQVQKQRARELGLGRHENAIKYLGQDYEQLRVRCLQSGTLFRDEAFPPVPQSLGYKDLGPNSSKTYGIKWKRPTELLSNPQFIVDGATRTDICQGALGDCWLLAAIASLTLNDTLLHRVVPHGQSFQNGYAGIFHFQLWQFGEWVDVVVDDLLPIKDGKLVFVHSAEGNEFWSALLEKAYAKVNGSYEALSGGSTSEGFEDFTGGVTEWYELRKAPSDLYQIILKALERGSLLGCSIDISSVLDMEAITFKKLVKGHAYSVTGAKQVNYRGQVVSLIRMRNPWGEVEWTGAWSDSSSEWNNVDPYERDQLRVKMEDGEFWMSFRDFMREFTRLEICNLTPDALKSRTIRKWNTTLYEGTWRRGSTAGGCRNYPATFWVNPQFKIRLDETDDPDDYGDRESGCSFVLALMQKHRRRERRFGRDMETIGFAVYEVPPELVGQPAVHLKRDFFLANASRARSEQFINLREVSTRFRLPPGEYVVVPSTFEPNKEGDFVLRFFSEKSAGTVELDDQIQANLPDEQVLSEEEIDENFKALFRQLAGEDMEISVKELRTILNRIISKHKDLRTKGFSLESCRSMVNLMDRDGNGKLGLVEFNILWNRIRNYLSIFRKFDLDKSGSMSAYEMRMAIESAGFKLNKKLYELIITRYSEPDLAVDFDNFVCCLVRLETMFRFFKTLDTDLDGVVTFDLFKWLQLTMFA
T2 sequence (P04632 1-268 partner): T1 sequence (P04632 1-268 partner)
Experimental: as §1, §2, §3
Column A: Human Calpain 1/NS1 IC50 (nM)_MEAN

Human Calpain 2/NS1 = target: T3, Human Calpain 2/NS1 (Homo sapiens, UniProt P17655); assay: Biochemical inhibition of Calpain 2, continuous fluorescence (FRET) assay; conditions: mean; class symbols; read-out: Human Calpain 2/NS1 IC50 (nM)_MEAN
T3 sequence (P17655 1-700): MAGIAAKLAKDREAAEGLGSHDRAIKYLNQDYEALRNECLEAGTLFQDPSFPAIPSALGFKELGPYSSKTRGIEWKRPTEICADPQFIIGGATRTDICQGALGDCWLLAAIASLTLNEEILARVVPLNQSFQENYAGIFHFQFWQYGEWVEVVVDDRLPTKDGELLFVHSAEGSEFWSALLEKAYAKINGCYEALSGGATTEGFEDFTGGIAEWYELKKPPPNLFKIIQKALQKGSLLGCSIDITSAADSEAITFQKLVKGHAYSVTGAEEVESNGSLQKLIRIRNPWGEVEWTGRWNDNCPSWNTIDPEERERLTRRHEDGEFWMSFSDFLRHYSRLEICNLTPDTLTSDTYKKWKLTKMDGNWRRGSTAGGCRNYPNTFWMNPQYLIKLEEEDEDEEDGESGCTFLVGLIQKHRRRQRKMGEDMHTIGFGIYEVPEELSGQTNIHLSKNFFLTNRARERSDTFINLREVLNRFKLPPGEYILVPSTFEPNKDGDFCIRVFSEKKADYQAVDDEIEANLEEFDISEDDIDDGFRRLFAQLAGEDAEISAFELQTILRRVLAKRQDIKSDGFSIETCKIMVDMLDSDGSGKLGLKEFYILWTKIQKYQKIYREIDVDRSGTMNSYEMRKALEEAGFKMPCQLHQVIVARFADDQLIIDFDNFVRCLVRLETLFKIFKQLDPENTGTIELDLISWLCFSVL
T3 sequence (P04632 1-268 partner): T1 sequence (P04632 1-268 partner)
Experimental: as §1, §2, §3
Column B: Human Calpain 2/NS1 IC50 (nM)_MEAN

| IC50 (Human Calpain 9/NS1) [nM] | IC50 (Human Calpain 1/NS1) [nM] | IC50 (Human Calpain 2/NS1) [nM] | Compound |
| --- | --- | --- | --- |
| > 10000 | 3000 to 10000 | 3000 to 10000 | CC(C)[C@H](NC(=O)OCc1ccccc1)C(=O)NC1CCCNC(=O)C1=O (stereo partly drawn) [Compound 1] |
| > 10000 | > 10000 | 3000 to 10000 | CC(C)C[C@H](NC(=O)[C@@H](NC(=O)OCc1ccccc1)C(C)C)C(=O)NC1CCCNC(=O)C1=O (stereo partly drawn) [Compound 2] |
| > 10000 | > 10000 | > 10000 | CC(C)[C@H](NS(=O)(=O)c1ccc(F)cc1)C(=O)NC1CCCNC(=O)C1=O (stereo partly drawn) [Compound 3] |
| < 3000 | < 3000 | < 3000 | CC(C)[C@H](NC(=O)OCc1ccccc1)C(=O)NC1CCCCCCNC(=O)C1=O (stereo partly drawn) [Compound 4] |
| > 10000 | > 10000 | > 10000 | CC(C)[C@H](NC(=O)OCc1ccccc1)C(=O)NC1CCNC(=O)C1=O (stereo partly drawn) [Compound 5] |
| > 10000 | > 10000 | > 10000 | CC(C)[C@H](NC(=O)OCc1ccccc1)C(=O)NC1CCCN(C)C(=O)C1=O (stereo partly drawn) [Compound 6] |
| < 3000 | 3000 to 10000 | < 3000 | O=C1NCCCCCC[C@H](NC(=O)c2ccccc2-c2ccccc2)C1=O [Compound 8] |
| < 3000 | < 3000 | < 3000 | CC(C)[C@H](NC(=O)OCc1ccccc1)C(=O)N[C@H]1CCCCCCCNC(=O)C1=O [Compound 9] |
